Results: ChEMBL document CHEMBL1201862, “PubChem BioAssay data set” (2004)
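Five compound concentrations were applied to cells in 96-well plates for 48 hours; endpoints were derived by simple linear interpolation of the resulting dose-response curve. GI50 marks 50% less growth.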 Activity calls are given as the source filed them. No stated cut-off is given here; in the data, active = GI50 up to about 1.1 µM and inactive = higher.

Columns and labels:
Assay in all cases: NCI tumour cell line growth inhibition, 48 h
SF-268 = system: SF-268
OVCAR-3 = system: OVCAR-3
UACC-62 = system: UACC-62
M14 = system: M14
U-251 = system: U-251
HCT-15 = system: HCT-15
HT-29 = system: HT-29
K562 = system: K562
OVCAR-5 = system: OVCAR-5
HCT-116 = system: HCT-116
UO-31 = system: UO-31
SK-MEL-28 = system: SK-MEL-28
SK-MEL-2 = system: SK-MEL-2
SK-OV-3 = system: SK-OV-3
EKVX = system: EKVX
SW-620 = system: SW-620
SF-539 = system: SF-539
KM12 = system: KM12
MOLT-4 = system: MOLT-4
SN12C = system: SN12C

Row | Structure (SMILES) | GI50 (SF-268) | GI50 (OVCAR-3) | GI50 (UACC-62) | GI50 (M14) | GI50 (U-251) | GI50 (HCT-15) | GI50 (HT-29) | GI50 (K562) | GI50 (OVCAR-5) | GI50 (HCT-116) | GI50 (UO-31) | GI50 (SK-MEL-28) | GI50 (SK-MEL-2) | GI50 (SK-OV-3) | GI50 (EKVX) | GI50 (SW-620) | GI50 (SF-539) | GI50 (KM12) | GI50 (MOLT-4) | GI50 (SN12C)
1 | Cc1c(CCO)c(O)n2c(nc3ccccc32)c1C#N | > 100 µM (inactive) | 92.5 µM (inactive) | > 100 µM (inactive) | 84.1 µM (inactive) | 46.1 µM (inactive) | 45.7 µM | 44.3 µM (inactive) | 99.5 µM (inactive) | > 100 µM (inactive) | 41.3 µM (inactive) | 65.8 µM (inactive) | > 100 µM (inactive) | 91.6 µM (inactive) | > 100 µM (inactive) | > 100 µM (inactive) | 54.1 µM (inactive) | > 100 µM (inactive) | > 100 µM (inactive) | – | –
2 | O=C(c1ccccc1)c1cccc(C(=O)c2ccccc2)c1 | > 100 µM (inactive) | > 100 µM (inactive) | > 100 µM (inactive) | > 100 µM (inactive) | > 100 µM (inactive) | – | > 100 µM (inactive) | > 100 µM (inactive) | – | > 100 µM (inactive) | 37.2 µM (inactive) | > 100 µM (inactive) | > 100 µM (inactive) | > 100 µM (inactive) | > 100 µM (inactive) | > 100 µM (inactive) | > 100 µM (inactive) | 44.1 µM (inactive) | 67.9 µM (inactive) | > 100 µM (inactive)
3 | Sc1ncnc2c1ncn2Cc1ccco1 | > 100 µM (inactive) | > 100 µM (inactive) | > 100 µM (inactive) | > 100 µM (inactive) | > 100 µM (inactive) | > 100 µM | > 100 µM (inactive) | > 100 µM (inactive) | > 100 µM (inactive) | > 100 µM (inactive) | > 100 µM (inactive) | > 100 µM (inactive) | > 100 µM (inactive) | > 100 µM (inactive) | > 100 µM (inactive) | > 100 µM (inactive) | > 100 µM (inactive) | > 100 µM (inactive) | > 100 µM (inactive) | > 100 µM (inactive)
4 | C=CC(C)CCC(C/C=C(\C)CCCC(C)C)C(=C)CCCC(C)C (stereo unspecified) | > 100 µM (inactive) | > 100 µM (inactive) | > 100 µM (inactive) | > 100 µM (inactive) | > 100 µM (inactive) | > 100 µM | – | > 100 µM (inactive) | > 100 µM (inactive) | > 100 µM (inactive) | > 100 µM (inactive) | > 100 µM (inactive) | > 100 µM (inactive) | > 100 µM (inactive) | > 100 µM (inactive) | > 100 µM (inactive) | > 100 µM (inactive) | > 100 µM (inactive) | > 100 µM (inactive) | > 100 µM (inactive)
5 | CC1=C(C(=O)O)N2C(=O)[C@@H](NC(=O)C(c3ccc(O)cc3)N3CSC(=S)N(C(C)C)C3)C2SC1 (stereo partly specified) | > 100 µM (inactive) | 99.1 µM (inactive) | > 100 µM (inactive) | > 100 µM (inactive) | > 100 µM (inactive) | > 100 µM | > 100 µM (inactive) | 57.8 µM (inactive) | > 100 µM (inactive) | > 100 µM (inactive) | > 100 µM (inactive) | > 100 µM (inactive) | > 100 µM (inactive) | > 100 µM (inactive) | > 100 µM (inactive) | – | > 100 µM (inactive) | > 100 µM (inactive) | > 100 µM (inactive) | > 100 µM (inactive)
6 | Cc1ccccc1NC(=O)c1nc(S)nc(N)c1-c1ccccc1C | > 100 µM (inactive) | > 100 µM (inactive) | > 100 µM (inactive) | > 100 µM (inactive) | > 100 µM (inactive) | > 100 µM | > 100 µM (inactive) | > 100 µM (inactive) | > 100 µM (inactive) | > 100 µM (inactive) | > 100 µM (inactive) | > 100 µM (inactive) | > 100 µM (inactive) | > 100 µM (inactive) | > 100 µM (inactive) | > 100 µM (inactive) | > 100 µM (inactive) | > 100 µM (inactive) | > 100 µM (inactive) | > 100 µM (inactive)
7 | CC(C)(C)OC(=O)CC(NC(=O)OC(C)(C)C)C(=O)NC(C(=O)O)C(O)c1ccccc1 (stereo unspecified) | 50.2 µM (inactive) | > 100 µM (inactive) | 37.5 µM (inactive) | > 100 µM (inactive) | 77.6 µM (inactive) | > 100 µM | 75.3 µM (inactive) | 46.9 µM (inactive) | > 100 µM (inactive) | 79.1 µM (inactive) | > 100 µM (inactive) | > 100 µM (inactive) | > 100 µM (inactive) | 41.7 µM (inactive) | > 100 µM (inactive) | 40.3 µM (inactive) | > 100 µM (inactive) | 97.7 µM (inactive) | 32.4 µM (inactive) | –
8 | O=S(=O)(O)c1cc(/N=N/c2c(O)ccc3ccccc23)cc2c(S(=O)(=O)O)cccc12 | > 100 µM (inactive) | > 100 µM (inactive) | > 100 µM (inactive) | > 100 µM (inactive) | > 100 µM (inactive) | > 100 µM | > 100 µM (inactive) | > 100 µM (inactive) | > 100 µM (inactive) | > 100 µM (inactive) | > 100 µM (inactive) | > 100 µM (inactive) | > 100 µM (inactive) | > 100 µM (inactive) | > 100 µM (inactive) | > 100 µM (inactive) | > 100 µM (inactive) | > 100 µM (inactive) | > 100 µM (inactive) | –
9 | C[n+]1c2ccccc2c(NCC(=O)O)c2ccccc21 | > 100 µM (inactive) | > 100 µM (inactive) | > 100 µM (inactive) | > 100 µM (inactive) | > 100 µM (inactive) | > 100 µM | > 100 µM (inactive) | > 100 µM (inactive) | > 100 µM (inactive) | 86.7 µM (inactive) | > 100 µM (inactive) | – | > 100 µM (inactive) | > 100 µM (inactive) | 87.5 µM (inactive) | > 100 µM (inactive) | > 100 µM (inactive) | > 100 µM (inactive) | > 100 µM (inactive) | > 100 µM (inactive)
10 | COc1c(CCl)cc(-c2cc(=O)c3ccccc3s2)cc1CCl | 9.23 µM (inactive) | 11.5 µM (inactive) | 4.99 µM (inactive) | > 100 µM (inactive) | 18.8 µM (inactive) | > 100 µM | – | 2.68 µM (inactive) | > 100 µM (inactive) | 5.58 µM (inactive) | 1.95 µM (inactive) | > 94.4 µM (inactive) | 10.1 µM (inactive) | 27.3 µM (inactive) | > 100 µM (inactive) | – | 6.55 µM (inactive) | 3.33 µM (inactive) | 1.91 µM (inactive) | > 100 µM (inactive)
11 | CC(=NNC(=S)Nc1ccccc1C)c1cccc(C(C)=NNC(=S)Nc2ccccc2C)n1 | 5.81 µM (inactive) | – | 45.1 µM (inactive) | 15.8 µM (inactive) | 34.4 µM (inactive) | 8.63 µM | 39 µM (inactive) | 31.4 µM (inactive) | > 100 µM (inactive) | 18.4 µM (inactive) | 45.9 µM (inactive) | 13 µM (inactive) | 74.3 µM (inactive) | > 100 µM (inactive) | 76 µM (inactive) | 57.5 µM (inactive) | 6.68 µM (inactive) | 24 µM (inactive) | 14.1 µM (inactive) | 44.6 µM (inactive)
12 | COc1ccc(N2C(=O)C(Cl)C2c2cc3cc(Br)ccc3nc2Cl)cc1 (stereo unspecified) | 6.38 µM (inactive) | 8.45 µM (inactive) | 4.37 µM (inactive) | 4.86 µM (inactive) | – | 4.71 µM | 4.68 µM (inactive) | 7.24 µM (inactive) | 7.96 µM (inactive) | 4.68 µM (inactive) | 0.701 µM (active) | 7.28 µM (inactive) | 5.12 µM (inactive) | 16.6 µM (inactive) | 4.67 µM (inactive) | 5.55 µM (inactive) | 5.07 µM (inactive) | 10.9 µM (inactive) | 4.38 µM (inactive) | 5.79 µM (inactive)
13 | CCCCCCCCCCCCOCCCOP(=O)([O-])OCC[N+](C)(C)C | 30.3 µM (inactive) | 51.9 µM (inactive) | 28.1 µM (inactive) | 32.8 µM (inactive) | 16.1 µM (inactive) | 25.6 µM | 17.3 µM (inactive) | 48.8 µM (inactive) | 21.1 µM (inactive) | 26.4 µM (inactive) | 49.4 µM (inactive) | 58.5 µM (inactive) | 43.5 µM (inactive) | 50.8 µM (inactive) | 99.1 µM (inactive) | 63.5 µM (inactive) | 31.2 µM (inactive) | 2.95 µM (inactive) | 20.2 µM (inactive) | 28.5 µM (inactive)
14 | COC(=O)[C@]1(C)CCC[C@@]2(C)C1CCC1=CC3(C(C)C)CCC12OO3 (stereo partly specified) | > 100 µM (inactive) | > 100 µM (inactive) | 57 µM (inactive) | 74 µM (inactive) | > 100 µM (inactive) | 40 µM | 34.4 µM (inactive) | 27.7 µM (inactive) | > 100 µM (inactive) | 42 µM (inactive) | 41 µM (inactive) | – | 46.9 µM (inactive) | > 100 µM (inactive) | 90.6 µM (inactive) | > 100 µM (inactive) | > 100 µM (inactive) | > 100 µM (inactive) | 20 µM (inactive) | 43.2 µM (inactive)
